According to patent US20230181700A1 (priority 2021, published 2023):

System: Vero cells
Format: cell-based
Details: read-out: IC50 of toxicity

C[C@@H]1C[C@@H]([C@H](O)CC2CC(=O)NC(=O)C2)C(=O)[C@@H](C)C1 [cyclohexamide]
IC50: 200 nM
